Data on 28 molecules can be found in US9693997B2, “Antiviral compounds” (priority 2013, dated 2017).

SMILES strings stand for the structures. Structures can show the parent of a compound that is named as a salt.

Holding throughout (assay): microbe, parasite or virus in culture
The subject of assay [1] is Pseudotyped HCV GT1b particles (HCVpp), entry into Huh7-high CD81 cells. In kind it is cell-based, HCV GT1b Con1 strain. As to conditions: Hepatitis C virus, GT1B, 72 h, read-out: HCVpp GT-1b (EC50, μM).
The subject of assay [2] is Pseudotyped HCV GT1a particles (HCVpp), entry into Huh7-high CD81 cells. In kind it is cell-based, HCV GT1a H77 strain. As to conditions: Hepatitis C virus, 72 h, read-out: HCVpp GT-1a (EC50, μM).
Assay [3] relates to pseudotyped VSV G particles (VSVpp) in Huh7-high CD81 cells. In kind it is cell-based, vesicular stomatitis virus. As to conditions: Vesicular stomatitis virus, 72 h, read-out: VSVpp (EC50, μM).

Consider `CS(=O)(=O)Cc1ccc(-c2c(Cl)cc(Nc3n[nH]c(N)n3)cc2Cl)cc1` [Compound 31, N*3*-(2,6-Dichloro-4′-methanesulfonylmethyl-biphenyl-4-yl)-1H-[1,2,4]triazole-3,5-diamine], for which the EC50 – broadly, the concentration needed to bring the measured effect to its halfway point – in assay [1] stood at 0.086 µM; in assay [2] it was 0.004 µM; in assay [3] it was 3.23 µM.

Turning to `Nc1nc(Nc2ccc(-c3ccc(F)c(F)c3)c(Cl)c2)n[nH]1` [Compound 147, N*3*-(2-Chloro-3′,4′-difluoro-biphenyl-4-yl)-1H-[1,2,4]triazole-3,5-diamine], the EC50 stood at 6.12 µM in assay [1], 0.621 µM in assay [2] and 47.2 µM in assay [3].

As to `CS(=O)(=O)c1ccc(-c2c(Cl)cc(Nc3n[nH]c(N)n3)cc2Cl)cc1` [Compound 94, N3-(2,6-Dichloro-4′-(methylsulfonyl)biphenyl-4-yl)-1H-1,2,4-triazole-3,5-diamine], the values for the concentration for a half-maximal effect (EC50) in assay [1], in assay [2] and in assay [3] were 0.174 µM, 0.007 µM and 2 µM, respectively.

With `CC(C)(C)NS(=O)(=O)c1ccc(-c2c(Cl)cc(Nc3n[nH]c(N)n3)cc2C(F)(F)F)cc1OC(F)(F)F` [Compound 217, 4′-(5-Amino-1H-[1,2,4]triazol-3-ylamino)-6′-chloro-3-trifluoromethoxy-2′-trifluoromethylbiphenyl-4-sulfonic acid tert-butylamide], the EC50 in assay [2] was 0.003 µM; in assay [3], 7.5 µM.

Turning to `CC(C)S(=O)(=O)c1ccc(-c2c(Cl)cc(Nc3n[nH]c(N)n3)cc2C(F)(F)F)cc1` [Compound 181, N3-(2-chloro-4′-(isopropylsulfonyl)-6-(trifluoromethyl)biphenyl-4-yl)-1H-1,2,4-triazole-3,5-diamine], the EC50 is 0.059 µM in assay [1] and 0.021 µM in assay [2].

Turning to `CC(C)(C)NS(=O)(=O)c1ccc(-c2c(Cl)cc(Nc3n[nH]c(N)n3)cc2C(F)(F)F)cc1` [Compound 219, 4′-(5-Amino-1H-[1,2,4]triazol-3-ylamino)-6′-chloro-2′-trifluoromethyl-biphenyl-4-sulfonic acid tert-butylamide], the EC50 came out at 0.011 µM in assay [2] and 16.2 µM in assay [3].

In the case of `COc1cc(-c2c(Cl)cc(Nc3n[nH]c(N)n3)cc2C(F)(F)F)ccc1S(=O)(=O)N[C@H]1CC[C@H](O)CC1` [Compound 167, 4′-(5-amino-1H-1,2,4-triazol-3-ylamino)-2′-chloro-N-(trans-4-hydroxycyclohexyl)-3-methoxy-6′-(trifluoromethyl)biphenyl-4-sulfonamide], the figures for the 50% effective concentration (EC50) in assay [1] and in assay [3] were 0.009 µM and over 10 µM, respectively.

In the case of `Nc1n[nH]c(Nc2cc(F)c(-c3ccc(S(=O)(=O)N4CCOCC4)cc3)c(F)c2)n1` [Compound 77, N^5-(2,6-difluoro-4′-(morpholine-4-sulfonyl)biphenyl-4-yl)-1H-[1,2,4]-triazole-3,5-diamine], the figures for the EC50 in assay [1] and in assay [3] were 0.19 µM and 24.7 µM, respectively.

As for `Nc1n[nH]c(Nc2cc(F)c(-c3cccc(F)c3)c(C(F)(F)F)c2)n1` [Compound 244], the EC50 was determined as 0.689 µM in assay [1] and 33.4 µM in assay [3].

For `CC(C)S(=O)(=O)c1ccc(-c2c(F)cc(Nc3nc(N)n[nH]3)cc2C(F)(F)F)cc1` [Compound 71, N^5-[6-Fluoro-4′-(propane-2-sulfonyl)-2-trifluoromethyl-biphenyl-4-yl]-1H-[1,2,4]-triazole-3,5-diamine], the EC50 in assay [1] was 0.153 µM; in assay [3] it was over 10 µM.

Take `CN(CCOc1ccc(-c2c(Cl)cc(Nc3n[nH]c(N)n3)cc2Cl)cc1)C(=O)OC(C)(C)C` [Compound 261, {2-[4′-(5-Amino-1H-[1,2,4]triazol-3-ylamino)-2′,6′-dichloro-biphenyl-4-yloxy]-ethyl}-methyl-carbamic acid tert-butyl ester]: the EC50 in assay [1] worked out at 0.033 µM; in assay [3], 4.26 µM.

Consider `COc1ccc(-c2c(Cl)cc(Nc3n[nH]c(N)n3)cc2C(F)(F)F)cc1S(=O)(=O)C(C)C` [Compound 19, N*3*-[2-Chloro-4′-methoxy-3′-(propane-2-sulfonyl)-6-trifluoromethyl-biphenyl-4-yl]-1H-[1,2,4]triazole-3,5-diamine], for which the EC50 in assay [1] is 0.049 µM; in assay [3], over 10 µM.

Turning to `CCCCC(=O)Nc1ccc(-c2c(Cl)cc(Nc3n[nH]c(N)n3)cc2Cl)cc1` [Compound 9, Pentanoic acid [4′-(5-amino-1H-[1,2,4]triazol-3-ylamino)-2′,6′-dichloro-biphenyl-4-yl]-amide], the EC50 turned out to be 0.014 µM in assay [1] and 5.05 µM in assay [3].

With `CN(C(C)(C)C)S(=O)(=O)c1cccc(-c2c(Cl)cc(Nc3n[nH]c(N)n3)cc2C(F)(F)F)c1` [Compound 196, 4′-(5-amino-1H-1,2,4-triazol-3-ylamino)-N-tert-butyl-2′-chloro-N-methyl-6′-(trifluoromethyl)biphenyl-3-sulfonamide], the EC50 in assay [1] was 0.126 µM; in assay [3], over 10 µM.

Regarding `CN1CCCC(Oc2ccc(-c3c(Cl)cc(Nc4n[nH]c(N)n4)cc3C(F)(F)F)cc2)C1` (centres unmarked) [Compound 132, N*3*-[6-Chloro-4′-(1-methyl-piperidin-3-yloxy)-2-trifluoromethyl-biphenyl-4-yl]-1H-[1,2,4]triazole-3,5-diamine hydrochloride], the results for the EC50 in assay [1] and in assay [3] were 0.088 µM and 6.13 µM, respectively.

With `Nc1nc(Nc2cc(Cl)c(-c3ccc(OC4CCN(CCC(F)(F)F)CC4)cc3)c(C(F)(F)F)c2)n[nH]1` [Compound 140, N*3*-{6-Chloro-2-trifluoromethyl-4′-[1-(3,3,3-trifluoro-propyl)-piperidin-4-yloxy]-biphenyl-4-yl}-1H-[1,2,4]triazole-3,5-diamine hydrochloride], the EC50 is 0.111 µM in assay [1] and over 10 µM in assay [3].

With `COc1ccc(-c2c(Cl)cc(Nc3n[nH]c(N)n3)cc2C(F)(F)F)cc1S(=O)(=O)N1CCNCC1` [Compound 182, N3-(2-chloro-4′-methoxy-3′-(piperazin-1-ylsulfonyl)-6-(trifluoromethyl)biphenyl-4-yl)-1H-1,2,4-triazole-3,5-diamine hydrochloride], the 50% effective concentration (EC50) in assay [1] was 0.044 µM; in assay [3], over 10 µM.

On to `CS(=O)(=O)CCN1CCC(Oc2ccc(-c3c(Cl)cc(Nc4n[nH]c(N)n4)cc3C(F)(F)F)cc2)CC1` [Compound 141, N*3*-{6-Chloro-4′-[1-(2-methanesulfonyl-ethyl)-piperidin-4-yloxy]-2-trifluoromethyl-biphenyl-4-yl}-1H-[1,2,4]triazole-3,5-diamine hydrochloride], for which the EC50 in assay [1] was 0.194 µM; in assay [3] it was over 10 µM.

`CNCCNS(=O)(=O)c1ccc(-c2c(Cl)cc(Nc3n[nH]c(N)n3)cc2C(F)(F)F)cc1` [Compound 213, 4′-(5-amino-1H-1,2,4-triazol-3-ylamino)-2′-chloro-N-(2-(methylamino)ethyl)-6′-(trifluoromethyl)biphenyl-4-sulfonamide hydrochloride]: the EC50 in assay [1] is 0.062 µM; in assay [3], over 10 µM.

For the molecule `Nc1nc(Nc2cc(Cl)c(-c3ccc(NC(=O)C4CCOCC4)cc3)c(Cl)c2)n[nH]1` [Compound 82, Tetrahydropyran-4-carboxylic acid-(4′-(5-amino-1H-[1,2,4]triazol-3-ylamino)-2′,6′-dichlorobiphenyl-4-yl)-amide], the results for the EC50 in assay [1] and in assay [3] were 0.39 µM and over 10 µM, respectively.

Take `Nc1nc(Nc2cc(Cl)c(-c3cccc(C(F)(F)F)c3)c(Cl)c2)n[nH]1` [Compound 108, N-3-(2,6-Dichloro-3′-trifluoromethyl-biphenyl-4-yl)-1H-[1,2,4]triazole-3,5-diamine]: the EC50 in assay [1] is 0.014 µM; in assay [3], 29 µM.

For the molecule `CC(C)CCS(=O)(=O)c1ccc(-c2c(Cl)cc(Nc3n[nH]c(N)n3)cc2C(F)(F)F)cc1` [Compound 61, N*3*-[6-Chloro-4′-(3-methyl-butane-1-sulfonyl)-2-trifluoromethyl-biphenyl-4-yl]-1H-1,2,4-triazole-3,5-diamine], the EC50 in assay [1] is 0.013 µM; in assay [3] it was over 10 µM.

As to `Nc1nc(Nc2ccc(-c3ccc(F)c(F)c3)c(C(F)(F)F)c2)n[nH]1` [Compound 152, N*3*-(3′,4′-Difluoro-2-trifluoromethyl-biphenyl-4-yl)-1H-[1,2,4]triazole-3,5-diamine], the EC50 was found to be 0.575 µM in assay [1] and 20.4 µM in assay [3].

`CC1(O)CN(S(=O)(=O)c2ccc(-c3c(Cl)cc(Nc4n[nH]c(N)n4)cc3C(F)(F)F)cc2)C1` [Compound 63, 1-[4′-(5-Amino-1H-[1,2,4]triazol-3-ylamino)-6′-chloro-2′-trifluoromethyl-biphenyl-4-sulfonyl]-3-methyl-azetidin-3-ol]: the concentration giving a half-maximal response (EC50) in assay [1] was 0.018 µM; in assay [3] it was 3.86 µM.

In the case of `CS(=O)(=O)c1ccc(-c2ccc(Nc3n[nH]c(N)n3)cc2Cl)c(F)c1` [Compound 157, N3-(2-chloro-2′-fluoro-4′-(methylsulfonyl)biphenyl-4-yl)-1H-1,2,4-triazole-3,5-diamine], the EC50 in assay [1] stood at 1.33 µM; in assay [3], 5.16 µM.

On to `Nc1n[nH]c(Nc2cc(Cl)c(-c3ccc(OC4CCCNC4)cc3)c(Cl)c2)n1` (centres unmarked) [Compound 259], for which the EC50 in assay [1] was determined as 0.089 µM; in assay [3], 4.27 µM.

On to `CC(C)(C)OC(=O)N1CCC[C@@H]1COc1ccc(-c2c(Cl)cc(Nc3n[nH]c(N)n3)cc2Cl)cc1` [Compound 275, (R)-2-[4′-(5-Amino-1H-[1,2,4]triazol-3-ylamino)-2′,6′-dichloro-biphenyl-4-yloxymethyl]-pyrrolidine-1-carboxylic acid tert-butyl ester], for which the EC50 was 0.285 µM in assay [1] and over 10 µM in assay [3].

For the molecule `CSc1ccc(-c2ccc(Nc3n[nH]c(N)n3)cc2Cl)c(F)c1` [Compound 156, N*3*-(2-Chloro-2′-fluoro-4′-methylsulfanyl-biphenyl-4-yl)-1H-[1,2,4]triazole-3,5-diamine], the results for the EC50 in assay [1] and in assay [3] were 3.77 µM and 11.3 µM, respectively.
